In PubChem BioAssay AID1035470 (Broad Institute, 2014) one finds AC50 data, which are given here for 76 molecules.

This assay concerns E. coli WT-GFP vs G2058-humanized RFP, fluorescence, 24 h. The assay can be described thus: E. coli strain growth, wild-type against G2058 humanized RFP mutant – G2058 mutant RFP vs wild-type GFP, cherry-pick, two tests, dose response (AID 1035470).
Setting [1] is: measured here: G2058 humanized mutant RFP growth.
Where [2] appears, read: E. coli WT-GFP vs G2058-humanized RFP mixed culture, total growth OD600, 24 h.

Results filed as inconclusive are left out. Active and inactive are the calls of the source.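 How the source made its calls: active means compound lowering the normal-ribosome reporter at least twice as much as the humanized-ribosome reporter, growth loss under a set limit; inconclusive means no clear call, values can overlap the other calls; inactive means the rest.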

By AC50 is commonly meant the concentration giving half of the maximal activity seen. Take `COC(C(=O)Nc1ccnn1C1CCN(Cc2ccc(Cl)s2)CC1)c1ccccc1` (configuration not stated): the AC50 was > 100 µM (inactive). This molecule gave an AC50 under setting [1] of over 100 µM.
In the case of `CN(C)CCCN(C(=O)CCOc1ccccc1)c1nc2c(F)cccc2s1`, the AC50 was > 100 µM (inactive).
With `Cc1nc(SCC(=O)Nc2ccc3c(c2)OCCO3)nc(C)c1C`, the AC50 is > 100 µM (inactive). This molecule yielded an AC50 under setting [2] of 46.5 µM.
`CC1C=Cc2ccccc2N1C(=O)c1ccccc1` (configuration not stated): the AC50 was > 100 µM (inactive).
With `CCN(CC(=O)Nc1ccccc1OC)CC(=O)Nc1c(Cl)ccc(C)c1Cl`, the AC50 is > 100 µM (inactive). Besides, under setting [2], the AC50 is over 100 µM.
The like results for `CN(CC(=O)Nc1ccc(F)cc1)C(=O)COc1ccc([N+](=O)[O-])cc1Cl` were, in that order, > 100 µM (inactive) and over 100 µM.
Molecule `CCOC(=O)c1cccc(OS(=O)(=O)Cc2ccccc2)c1` displayed an AC50 under setting [2] of over 100 µM.
Take `COc1ccc(-c2cn3c(C)c(C(=O)Nc4cccc(C)n4)sc3n2)cc1`: the AC50 is > 100 µM (inactive). This molecule displayed an AC50 under setting [2] of over 100 µM.
The like results for `O=C(C[n+]1cc(-c2ccc(Cl)c(Cl)c2)n2c1CCC2)OCc1ccccc1` were, in that order, > 100 µM (inactive) and over 100 µM.
On to `O=C(COC(=O)CNC(=O)c1ccc(F)cc1)Nc1cccc(S(=O)(=O)N2CCCC2)c1`, for which the AC50 under setting [2] is over 100 µM.
For the molecule `COc1cccc(CNC(=O)CCSCc2ccccc2F)c1`, the AC50 was > 100 µM (inactive). Further, under setting [1], the concentration at half-maximal activity (AC50) is over 100 µM.
For `COc1cc(OC)cc(C(=O)Nc2ccc(S(=O)(=O)Nc3cnc4ccccc4n3)cc2)c1`, the AC50 was > 100 µM (inactive).
In the case of `Cc1ccc(-c2c(=O)n(O)c3ccccc3[n+]2[O-])cc1`, under setting [1], the AC50 was over 100 µM.
With `O=C(Nc1cc(S(=O)(=O)N2CCCCC2)ccc1N1CCCCC1)C1CC1`, the AC50 is > 100 µM (inactive).
Still for that read-out and setting: under `CCOC(=O)c1sc(Nc2cccc(Cl)c2)nc1C` stands > 100 µM (inactive).
For the molecule `COc1ccc(CC(=O)NC(C)c2ccc3ccccc3c2)cc1` (configuration not stated), the AC50 under setting [1] came to 5.4 µM.
With `CCOCCCNC(=O)C(NC(=O)c1ccccc1O)c1ccc(C)cc1` (configuration not stated), the AC50 under setting [2] is over 100 µM.
Same read-out and setting: under `C[C@@H]1CN([C@@H](C)CO)C(=O)CCCn2nncc2CO[C@H]1CN(C)C(=O)Nc1cccc(C(F)(F)F)c1` stands over 100 µM.
With `N#Cc1ccc(OCC(=O)N2CCN(S(=O)(=O)c3ccc(Cl)s3)CC2)cc1`, the AC50 is > 100 µM (inactive).
As to `Cc1cccc(SCC(=O)Nc2ccccc2[N+](=O)[O-])c1`, the AC50 was > 100 µM (inactive). Moreover, the AC50 under setting [2] was over 100 µM.
`CCCN(CC(=O)Nc1ccccc1C)C(=O)c1cccc(S(=O)(=O)N2CCc3ccccc3C2)c1`: the AC50 is > 100 µM (inactive). In addition, the AC50 under setting [2] is over 100 µM.
As for `O=C(Nc1cccc(Cl)c1)N1C[C@@H]2[C@H](c3ccccc31)[C@H](CO)N2Cc1ccncc1`, the AC50 is > 100 µM (inactive). The molecule also returned an AC50 under setting [2] of over 100 µM.
`CS(=O)(=O)NCCSc1cc(C(F)(F)F)nc2ccccc12`: the AC50 is > 100 µM (inactive).
Consider `CCn1c(COc2cccc(OC)c2)nnc1SCC(=O)Nc1cc(OC)ccc1OC`, for which the half-maximal activity concentration (AC50) under setting [1] came to 19.4 µM.
On to `COc1cc(OC)cc(C(=O)Nc2ccc(C(=O)Nc3ccccc3OC)cc2)c1`, for which the AC50 was > 100 µM (inactive). Further, the AC50 under setting [2] is over 100 µM.
The like results for `Cc1cc(C(=O)Nc2ccc3ccccc3c2)c(C)o1` were, in that order, > 100 µM (inactive) and over 100 µM.
As to `O=C(COC(=O)C1CC1)Nc1nc(-c2ccc(F)c(F)c2)cs1`, under setting [2], the AC50 is over 100 µM.
`Cc1cc([N+](=O)[O-])nn1CC(=O)Nc1cc(F)ccc1F`: the AC50 is > 100 µM (inactive).
`O=C(COn1nnc2ccc(C(F)(F)F)cc21)Nc1c(Cl)cccc1Cl`: the AC50 was > 100 µM (inactive). In addition, the AC50 under setting [2] is over 100 µM.
`O=C1OCCC1Sc1nc2ccccc2c(=O)n1Cc1ccccc1` (configuration not stated): the AC50 is > 100 µM (inactive).
Regarding `COc1ccccc1NC(=O)COC(=O)Cc1c[nH]c2ccccc12`, the AC50 under setting [1] was over 100 µM.
Regarding `CCN(CC)S(=O)(=O)c1cc(NC(=O)C(C)N2CCN(Cc3ccc4c(c3)OCO4)CC2)ccc1C` (configuration not stated), the AC50 is > 100 µM (inactive). The molecule further returned a concentration at half-maximal activity (AC50) under setting [1] of over 100 µM.
`COc1ccc(NC(=O)CCC(=O)c2cccs2)cc1S(=O)(=O)Nc1ccc(Cl)cc1`: the AC50 was > 100 µM (inactive).
Take `CSc1ccccc1C(=O)NCCc1ccc(S(=O)(=O)N2CCCCC2)cc1`: the AC50 was > 100 µM (inactive).
As to `Cc1cc(C)nc(SCc2cn3c(C)cccc3n2)n1`, the AC50 is > 100 µM (inactive). In addition, the AC50 under setting [2] was over 100 µM.
With `CC1CCCN(c2ccc(C(=O)NCCc3ccccc3)cn2)C1` (configuration not stated), the AC50 was > 100 µM (inactive).
Same read-out and setting: under `CCOC(=O)c1cc(-c2ccc(OC)cc2)n[nH]1` stands > 100 µM (inactive).
For the molecule `CN(C)S(=O)(=O)N1CCN(c2ccccc2Cl)CC1`, the AC50 is > 100 µM (inactive). The molecule also registered an AC50 under setting [2] of over 100 µM.
The like results for `CC(=O)Nc1cccc(OCCCOc2cccc([N+](=O)[O-])c2)c1` were, in that order, > 100 µM (inactive) and over 100 µM.
Under setting [1], `C=CCn1c(C)cc(C(=O)CSc2nnc(C3CC3)n2C2CC2)c1C` showed an AC50 of 48.6 µM.
`C[C@@H]1CCCCO[C@@H](CN(C)C)[C@H](C)CN([C@@H](C)CO)C(=O)c2cc(NC(=O)Nc3cccc4ccccc34)ccc2O1`: under setting [2], the AC50 was over 100 µM.
The same measure, in the same setting: under `CC(C)(C)NC(=O)C(c1ccncc1)N(Cc1ccc(F)cc1)C(=O)c1ccc(-c2ccccc2)[nH]1` (configuration not stated) stands over 100 µM.
Still for that read-out and setting: to `COc1cccc(SCC(=O)N2CCN(c3ccccc3)CC2)c1` belongs over 100 µM.
For the molecule `COc1cc2cc(C(=O)Nc3ccc4c(c3)OCCO4)[nH]c2cc1OC`, the AC50 is > 100 µM (inactive).
Turning to `CSc1nc2ccc(NS(=O)(=O)c3ccc([N+](=O)[O-])cc3)cc2s1`, the AC50 was > 100 µM (inactive). The AC50 under setting [2] is over 100 µM. Besides, under setting [1], the AC50 was over 100 µM.
`CCOC(=O)c1sc(NC(=O)CN2CCN(c3ccccc3)CC2)nc1C`: the AC50 was > 100 µM (inactive). The molecule also returned an AC50 under setting [2] of over 100 µM.
Consider `O=C(O)CC(CC(=O)Nc1ccc(Oc2ccccc2)cc1)c1ccccc1` (configuration not stated), for which the AC50 was > 100 µM (inactive).
In the case of `Cc1cc(C(=O)NCCC2=CCCCC2)ccc1[N+](=O)[O-]`, the AC50 is > 100 µM (inactive). The AC50 under setting [2] is over 100 µM.
The like results for `Cc1ccc(C2NC(=O)c3[nH]nc(-c4ccccc4)c32)cc1` (configuration not stated) were, in that order, > 100 µM (inactive) and over 100 µM.
For `Nc1c(C(=O)NCCN2CCOCC2)c2nc3ccccc3nc2n1Cc1ccccc1`, the AC50 is > 100 µM (inactive).
Same read-out and setting: under `COc1ccc(-c2nc3c(C)cc(Br)cn3c2Cc2ccc(C)cc2)cc1OC` stands > 100 µM (inactive).
Take `COc1ccc(N(CCC(=O)O)S(=O)(=O)c2ccc(C)cc2C)cc1`: the AC50 is > 100 µM (inactive). For the same molecule, the half-maximal activity concentration (AC50) under setting [2] was over 100 µM.
Turning to `Cc1cc(C(=O)OCC(=O)Nc2cccc(S(N)(=O)=O)c2)c2ccccc2n1`, the AC50 is > 100 µM (inactive).
The same measure, in the same setting: to `CCC(=O)Nc1nc2ccc(NC(=O)c3cc(OC)c(OC)c(OC)c3)cc2s1` belongs > 100 µM (inactive); to `Cc1ccc(S(=O)(=O)N2CCOCC2)cc1NC(=O)COc1ccc(-c2nnco2)cc1`, > 100 µM (inactive).
For the molecule `CCN(CC(=O)Nc1cccc(C#N)c1)CC(=O)Nc1cccc(OC)c1`, under setting [2], the AC50 was over 100 µM.
As to `COc1ccc(CNc2ncnc3cc(OC)c(OC)cc23)cc1OC`, the AC50 is > 100 µM (inactive). The AC50 under setting [2] is over 100 µM.
The like results for `O=c1c2ccccc2cnn1Cc1n[nH]c(=S)n1C1CC2CCC1C2` (configuration not stated) were, in that order, > 100 µM (inactive) and over 100 µM.
The molecule `O=C(c1ccc(Cl)cc1)C1CCCN(Cc2cccc3cnccc23)C1` (configuration not stated) gave an AC50 under setting [1] of over 100 µM.
For `Cc1cc(NC(=O)CCCn2cc([N+](=O)[O-])cn2)n(Cc2ccc(F)cc2)n1`, the AC50 was > 100 µM (inactive). The AC50 under setting [2] was over 100 µM.
Taken in the same sequence, the figures for `Cc1ccc(SCC(=O)Nc2ccc(S(=O)(=O)Nc3nccs3)cc2)cc1` were > 100 µM (inactive) and over 100 µM.
Taken in the same sequence, the figures for `CN1OC[C@@H]2CN(C(=O)c3ccco3)[C@H](c3ccc(-c4ccc(C#N)cc4)cc3)C[C@@H]21` were > 100 µM (inactive) and over 100 µM.
Under setting [2], `COc1ccc(C(=O)C[n+]2ccc3c(c2)nc(-c2cc(OC)c(OC)cc2OC)n3C)cc1` registered a concentration at half-maximal activity (AC50) of over 100 µM.
As to `COc1cccc(S(=O)(=O)N2CCCCN3[C@H](C2)[C@H](c2ccc(C#CC(C)C)cc2)[C@@H]3CO)c1`, the AC50 is > 100 µM (inactive).
For `COc1ccccc1N1CCN(Cc2ccc(OC)c3ccccc23)CC1`, the half-maximal activity concentration (AC50) under setting [2] was over 100 µM.
`O=C1c2ccccc2CSc2c(O)cccc21`: the AC50 is > 100 µM (inactive).
As to `COc1ccc2c(c1)c1ncn(Cc3ccccn3)c(=O)c1n2C`, the AC50 is > 100 µM (inactive). Further, the AC50 under setting [2] was over 100 µM.
With `CCOC(=O)Cc1nnc(NC(=O)CSc2nc3ccccc3[nH]2)s1`, the AC50 was > 100 µM (inactive).
With `CCOc1cccc(-c2cc(-c3n[nH]c(=S)n3CC)c3ccccc3n2)c1`, the AC50 is > 100 µM (inactive).
Take `Cc1cccc(Nc2nc(-c3ccc(F)cc3)cs2)n1`: the AC50 is > 100 µM (inactive). Also, the AC50 under setting [2] was over 100 µM.
Regarding `C(=C/c1nccc2c1[nH]c1ccccc12)/c1ccc2c(c1)OCO2`, under setting [1], the AC50 was over 100 µM.
Take `CCC(C(=O)NC1CCCC1)n1c(-c2ccnc3ccccc23)nc2ccccc21` (configuration not stated): the half-maximal activity concentration (AC50) under setting [2] is over 100 µM.
With `CCN(CC)CC(=O)Nc1ccc(-c2ccc(NC(=O)CN(CC)CC)c(OC)c2)cc1OC`, the AC50 was > 100 µM (inactive). This molecule yielded an AC50 under setting [2] of over 100 µM.
Molecule `O=C(C[n+]1ccc(Cc2ccccc2)cc1)Nc1ccc([N+](=O)[O-])cc1Cl` registered an AC50 under setting [1] of over 100 µM.
Consider `O=C(O)c1ccccc1-c1ccccc1C(=O)Nc1ccc2c(c1)CCC2`, for which the AC50 is > 100 µM (inactive).
Same read-out and setting: to `CC(=O)c1c(C)nn(CC(O)COc2ccc3c(c2)CCC3)c1C` (configuration not stated) belongs > 100 µM (inactive).
